The text below walks through data of publication PMC10043345, “Discovery of BAR502, as potent steroidal antagonist of leukemia inhibitory factor receptor for the treatment of pancreatic adenocarcinoma” (Frontiers in Oncology, 2023).

In assay [1] the target is T1, hLIFR (Homo sapiens, UniProt P42702).
T1 sequence (P42702 45-1097): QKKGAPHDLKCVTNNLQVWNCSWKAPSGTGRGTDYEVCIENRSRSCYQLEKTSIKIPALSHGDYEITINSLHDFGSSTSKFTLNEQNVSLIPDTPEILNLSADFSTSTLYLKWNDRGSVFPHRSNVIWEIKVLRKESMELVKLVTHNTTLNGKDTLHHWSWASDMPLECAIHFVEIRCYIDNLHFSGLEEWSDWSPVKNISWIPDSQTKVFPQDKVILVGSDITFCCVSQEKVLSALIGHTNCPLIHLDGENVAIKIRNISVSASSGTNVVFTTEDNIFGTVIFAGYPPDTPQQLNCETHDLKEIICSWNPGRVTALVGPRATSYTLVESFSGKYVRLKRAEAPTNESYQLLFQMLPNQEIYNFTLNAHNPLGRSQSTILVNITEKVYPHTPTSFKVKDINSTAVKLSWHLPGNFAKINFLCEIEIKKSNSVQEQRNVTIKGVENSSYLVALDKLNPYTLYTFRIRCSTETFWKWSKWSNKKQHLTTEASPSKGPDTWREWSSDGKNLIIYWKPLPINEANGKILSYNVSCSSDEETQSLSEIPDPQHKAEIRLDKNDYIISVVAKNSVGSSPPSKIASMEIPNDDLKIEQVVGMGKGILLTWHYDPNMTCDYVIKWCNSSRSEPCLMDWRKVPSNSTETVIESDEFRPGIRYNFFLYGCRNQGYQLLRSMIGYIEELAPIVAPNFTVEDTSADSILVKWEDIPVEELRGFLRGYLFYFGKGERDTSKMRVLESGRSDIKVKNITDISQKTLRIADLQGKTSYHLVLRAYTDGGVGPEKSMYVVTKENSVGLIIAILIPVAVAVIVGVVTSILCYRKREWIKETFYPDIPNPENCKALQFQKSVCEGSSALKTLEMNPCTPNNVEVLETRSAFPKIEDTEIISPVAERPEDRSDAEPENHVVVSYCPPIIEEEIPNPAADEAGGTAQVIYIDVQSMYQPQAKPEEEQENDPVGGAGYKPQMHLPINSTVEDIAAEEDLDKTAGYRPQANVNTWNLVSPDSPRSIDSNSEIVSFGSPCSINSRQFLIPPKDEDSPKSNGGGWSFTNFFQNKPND
The assay is described as follows: STAT3 transactivation in HepG2 cells transfected with hLIFR and CD130, stimulated with LIF. The following applies: LIF 10 ng/mL, read-out: HepG2 LIFR Antagonism IC50 (STAT3 transactivation). The class given is cell-based. The procedure: On day 0, HepG2 were seeded at 7.5 × 10^4 cells/well in a 24-well plate and maintained at 37°C and 5% CO2 in E-MEM supplemented with 10% FBS, 1% glutamine, and 1% penicillin/streptomycin. On day 1, cells were transiently transfected with the reporter plasmid pGL4.47[luc2P/SIE/Hygro] (200 ng) (CAT#: E4041 Promega, Madison, WI, USA), a vector encoding the hLIFR (CAT# RC226327) (100 ng) and CD130 (IL6ST) (100 ng) (CAT#: RC215123, OriGene Technologies, Inc. Rockville, MD, USA), and finally a vector encoding the human RENILLA luciferase gene (pGL4.70) (100 ng) (Promega, Madison, WI, USA). On day 2, cells were exposed to the cytokine LIF (10 ng/mL) alone or in combination with BAR502 (from 0.1 to 20 μM). […] For FXR mediated transactivation, HepG2 cells were plated at 7.5 × 10^4 cells/well in a 24 well plate. Cells were transfected with 200 ng of the reporter vector p(hsp27)-TK-LUC containing a FXR response element (IR1) cloned from the promoter of heat shock protein 27 (hsp27), 100 ng of pSG5-FXR, 100 ng of pSG5-RXR, and 100 ng of pGL4.70 (Promega), a vector encoding the human Renilla gene. To perform STAT3 transactivation, HepG2 were seeded at 7.5× 10^4 cells/well in a 24-well plate. On the day-1, cells were transiently transfected with 200 ng of the reporter plasmid pGL4.47[luc2P/SIE/Hygro] […] Luminescence was measured using a Glomax 20/20 luminometer (Promega, Madison, WI, USA). […]

The test system of assay [2] is MIA PaCa-2 cells. The assay is described as follows: Annexin V flow cytometry (apoptosis). The note with it: BAR502 10-20 µM + LIF 10 ng/mL; p<0.05. The class given is cell-based, human. As to the method: MIA-PaCa2 cells were seeded in 6-well tissue culture plate (cell density 700 × 10^3/well) and cultured as specified above. Cells were serum-starved for 8 h and then incubated with LIF (10 ng/mL) alone or plus BAR502 (10, 20 µM) or a vehicle for 24 h. The intracellular flow cytometry staining for Ki-67 was performed using the following reagents: Ki-67 Monoclonal Antibody (SolA15), Alexa Fluor™ 488, (eBioscience™, San Diego, California, USA) and 7-AAD to characterize the cell cycle phases G0-G1 and S-G2-M. Before intracellular IC-FACS, staining cells were fixed for 30 min in the dark using IC Fixation buffer (eBioscience™) and then permeabilized using Permeabilization buffer (10X) (eBioscience™). The staining for Annexin V was performed using the Annexin V Antibody (A13199, Thermofisher Scientific, Waltham, MA, USA) to evaluate the apoptosis rate. Briefly, 5 μL of Annexin V Antibody was added to each 100 μL of cell suspension, and cells were incubated the at room temperature for 15 min. Flow cytometry analyses were carried out using a 3-laser standard configuration ATTUNE NxT (LIFe Technologies, Carlsbad, CA, USA). Data were analyzed using FlowJo software (TreeStar) and the gates set using a fluorescence minus-one (FMO) control strategy. […] The channel in which the conjugated Ab is missing is the one for which the fluorescence minus one provides a gating control.

For `CC[C@H]1[C@@H](O)C2C3CC[C@H]([C@H](C)CCO)[C@@]3(C)CCC2[C@@]2(C)CC[C@@H](O)C[C@@H]12` (some centres unmarked) [BAR502], the IC50 in assay [1] worked out at 2730 nM. Moreover, the “effect on percentage of Annexin V+ cells” value in assay [2] is “increased the percentage of Annexin V^+ cells”.

For orientation: IC50 means the concentration at which inhibition is half-maximal.
